In ChEMBL document CHEMBL1795325, “Studying synergism of methyl linked cyclohexyl thiophenes with triazole: synthesis and their cdk5/p25 inhibition activity” (Eur J Med Chem, 2011) one finds IC50 data, which are given here for 55 molecules.

SMILES strings stand for the structures.

The test addresses Cyclin-dependent kinase 5/CDK5 activator 1 (Homo sapiens, UniProt Q00535). The class given is protein-complex assay.

Cyclin-dependent kinase 5/CDK5 activator 1, sequence (Q00535 whole entry): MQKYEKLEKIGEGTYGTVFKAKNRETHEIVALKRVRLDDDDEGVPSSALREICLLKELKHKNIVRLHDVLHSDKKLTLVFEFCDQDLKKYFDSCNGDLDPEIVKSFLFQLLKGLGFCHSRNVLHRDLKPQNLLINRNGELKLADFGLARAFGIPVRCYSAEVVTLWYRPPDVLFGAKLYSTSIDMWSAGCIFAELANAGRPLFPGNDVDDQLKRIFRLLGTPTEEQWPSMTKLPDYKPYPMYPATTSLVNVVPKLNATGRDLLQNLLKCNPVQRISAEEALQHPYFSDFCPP
Cyclin-dependent kinase 5/CDK5 activator 1, sequence (Q15078 whole entry, further chain): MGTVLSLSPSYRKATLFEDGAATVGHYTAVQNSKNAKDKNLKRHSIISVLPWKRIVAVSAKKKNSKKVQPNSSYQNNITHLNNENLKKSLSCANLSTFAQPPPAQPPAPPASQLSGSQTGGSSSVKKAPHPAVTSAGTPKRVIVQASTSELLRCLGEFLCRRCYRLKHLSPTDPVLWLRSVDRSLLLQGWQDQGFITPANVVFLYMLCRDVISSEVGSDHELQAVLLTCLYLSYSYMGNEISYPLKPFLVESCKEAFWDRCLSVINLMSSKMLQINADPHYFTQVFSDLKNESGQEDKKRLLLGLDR

`CC(=O)Nc1sc2c(c1Cc1nnc(SCSc3nnc(Cc4c(NC(C)=O)sc5c4CCCC5)n3NC(=O)c3ccccc3)n1NC(=O)c1ccccc1)CCCC2` showed an IC50 of 646 nM.
Then `O=C(O)CCNc1sc2c(c1Cc1nnc(SCSc3nnc(Cc4c(NCCC(=O)O)sc5c4CCCC5)n3NC(=O)c3ccccc3)n1NC(=O)c1ccccc1)CCCC2`, with 577 nM; and `NNC(=O)CSc1nnc(Cc2c(NC(=O)c3ccccc3)sc3c2CCCC3)n1NC(=O)c1ccc(Cl)cc1`, with 236 nM; and `O=C(O)CCNc1sc2c(c1Cc1nnc(SCC(=O)N/N=C/c3ccccc3)n1NC(=O)c1ccccc1)CCCC2`, with 267 nM.
Then `CC(=O)Nc1sc2c(c1Cc1nnc(SCC(=O)N/N=C/c3ccccc3)n1NC(=O)c1ccc(Cl)cc1)CCCC2`, with 213 nM; and `CC(=O)Nn1c(Cc2c(NC(=O)c3ccccc3)sc3c2CCCC3)nnc1SCc1nnc(S)n1N`, with 6140 nM; and `CC(=O)NNC(=O)CSc1nnc(Cc2c(NC(=O)c3ccccc3)sc3c2CCCC3)n1NC(=O)c1ccc(Cl)cc1`, with 318 nM.
Next, `COC(=O)CSc1nnc(Cc2c(NC(C)=O)sc3c2CCCC3)n1NC(=O)c1ccc(Cl)cc1`: 389 nM; `CC(=O)Nn1c(Cc2c(NCCC(=O)O)sc3c2CCCC3)nnc1SCC#N`: 641 nM.
Take `CC(=O)Nc1sc2c(c1Cc1nnc(SCC#N)n1NC(=O)c1ccccc1)CCCC2`: the IC50 turned out to be 393 nM.
Then `COC(=O)CSc1nnc(Cc2c(NC(C)=O)sc3c2CCCC3)n1NC(=O)c1ccccc1`, with 578 nM; and `CC(=O)Nn1c(Cc2c(NC(=O)c3ccccc3)sc3c2CCCC3)nnc1SCC(=O)NNC(=O)c1ccccc1`, with 411 nM; and `CC(=O)Nc1sc2c(c1Cc1nnc(SCC(=O)NNC(=O)c3ccccc3)n1NC(C)=O)CCCC2`, with 436 nM.
Then `O=C(O)CCNc1sc2c(c1Cc1nnc(SCC(=O)NNC(=O)CCl)n1NC(=O)c1ccccc1)CCCC2`, with 362 nM; and `CC(=O)Nc1sc2c(c1Cc1n[nH]c(=S)n1NC(=O)c1ccccc1)CCCC2`, with 572 nM.
In turn, `O=C(O)CCNc1sc2c(c1Cc1nnc(S)n1NC(=O)c1ccc(Cl)cc1)CCCC2` displayed an IC50 of 457 nM.
Next, `COC(=O)CSc1nnc(Cc2c(NC(=O)c3ccccc3)sc3c2CCCC3)n1NC(=O)c1ccc(Cl)cc1`: 293 nM; `COC(=O)CSc1nnc(Cc2c(NC(C)=O)sc3c2CCCC3)n1NC(C)=O`: 389 nM; `NNC(=O)CSc1nnc(Cc2c(NC(=O)c3ccccc3)sc3c2CCCC3)n1NC(=O)c1ccccc1`: 264 nM.
Then `CC(=O)Nn1c(Cc2c(NCCC(=O)O)sc3c2CCCC3)nnc1SCC(=O)N/N=C/c1ccccc1`, with 535 nM; and `CC(=O)Nc1sc2c(c1Cc1n[nH]c(=S)n1NC(=O)c1ccc(Cl)cc1)CCCC2`, with 460 nM; and `Nn1c(CSc2nnc(Cc3c(NCCC(=O)O)sc4c3CCCC4)n2NC(=O)c2ccccc2)n[nH]c1=S`, with 4990 nM.
As to `CC(=O)NNC(=O)CSc1nnc(Cc2c(NC(=O)c3ccccc3)sc3c2CCCC3)n1NC(=O)c1ccccc1`, the IC50 was 564 nM.
Next, `CC(=O)Nn1c(Cc2c(NCCC(=O)O)sc3c2CCCC3)n[nH]c1=S`: 433 nM; `CC(=O)Nc1sc2c(c1Cc1nnc(SCC(=O)NN)n1NC(=O)c1ccccc1)CCCC2`: 192 nM; `COC(=O)CSc1nnc(Cc2c(NC(=O)c3ccccc3)sc3c2CCCC3)n1NC(C)=O`: 567 nM.
Then `O=C(CCl)NNC(=O)CSc1nnc(Cc2c(NC(=O)c3ccccc3)sc3c2CCCC3)n1NC(=O)c1ccc(Cl)cc1`, with 340 nM.
In the case of `O=C(O)CCNc1sc2c(c1Cc1nnc(SCC(=O)NNC(=O)c3ccccc3)n1NC(=O)c1ccccc1)CCCC2`, inhibition was half-maximal at 434 nM (IC50).
Next, `O=C(Nc1sc2c(c1Cc1nnc(S)n1NC(=O)c1ccccc1)CCCC2)c1ccccc1`: 891 nM; `CC(=O)NNC(=O)CSc1nnc(Cc2c(NCCC(=O)O)sc3c2CCCC3)n1NC(=O)c1ccccc1`: 467 nM; `CC(=O)Nn1c(Cc2c(NCCC(=O)O)sc3c2CCCC3)nnc1SCC(=O)NNC(=O)CCl`: 265 nM.
Then `CC(=O)Nn1c(Cc2c(NCCC(=O)O)sc3c2CCCC3)nnc1SCc1nnc(S)n1N`, with 6210 nM; and `COC(=O)CSc1nnc(Cc2c(NC(=O)c3ccccc3)sc3c2CCCC3)n1NC(=O)c1ccccc1`, with 353 nM.
Next, `CC(=O)Nn1c(Cc2c(NCCC(=O)O)sc3c2CCCC3)nnc1SCC(=O)NNC(=O)c1ccccc1`: 476 nM; `Nn1c(S)nnc1CSc1nnc(Cc2c(NC(=O)c3ccccc3)sc3c2CCCC3)n1NC(=O)c1ccc(Cl)cc1`: 3280 nM.
Consider `COC(=O)CSc1nnc(Cc2c(NCCC(=O)O)sc3c2CCCC3)n1NC(=O)c1ccccc1`, for which the midpoint of inhibition, the IC50, lay at 641 nM.
Take `N#CCSc1nnc(Cc2c(NCCC(=O)O)sc3c2CCCC3)n1NC(=O)c1ccccc1`: it took 4870 nM to reach half-maximal inhibition (IC50).
Next, `CC(=O)NNC(=O)CSc1nnc(Cc2c(NC(=O)c3ccccc3)sc3c2CCCC3)n1NC(C)=O`: 639 nM; `CC(=O)Nc1sc2c(c1Cc1nnc(SCc3n[nH]c(=S)n3N)n1NC(=O)c1ccccc1)CCCC2`: 6440 nM.
Then `CC(=O)Nc1sc2c(c1Cc1nnc(SCc3nnc(S)n3N)n1NC(=O)c1ccc(Cl)cc1)CCCC2`, with 6380 nM; and `CC(=O)Nn1c(S)nnc1Cc1c(NC(=O)c2ccccc2)sc2c1CCCC2`, with 618 nM.
Then `CC(=O)Nn1c(Cc2c(NC(=O)c3ccccc3)sc3c2CCCC3)nnc1SCSc1nnc(Cc2c(NC(=O)c3ccccc3)sc3c2CCCC3)n1NC(C)=O`, with 766 nM; and `O=C(Nc1sc2c(c1Cc1nnc(SCSc3nnc(Cc4c(NC(=O)c5ccccc5)sc5c4CCCC5)n3NC(=O)c3ccccc3)n1NC(=O)c1ccccc1)CCCC2)c1ccccc1`, with 695 nM; and `CC(=O)Nn1c(Cc2c(NCCC(=O)O)sc3c2CCCC3)nnc1SCSc1nnc(Cc2c(NCCC(=O)O)sc3c2CCCC3)n1NC(C)=O`, with 734 nM.
In the case of `CC(=O)Nn1c(Cc2c(NC(=O)c3ccccc3)sc3c2CCCC3)nnc1SCC(=O)NN`, half-maximal inhibition (IC50) was put at 180 nM.
Then `CC(=O)Nn1c(Cc2c(NC(=O)c3ccccc3)sc3c2CCCC3)nnc1SCC(=O)N/N=C/c1ccccc1`, with 467 nM.
As for `O=C(CSc1nnc(Cc2c(NC(=O)c3ccccc3)sc3c2CCCC3)n1NC(=O)c1ccccc1)N/N=C/c1ccccc1`, the IC50 came to 435 nM.
Next, `CC(=O)NNC(=O)CSc1nnc(Cc2c(NC(C)=O)sc3c2CCCC3)n1NC(=O)c1ccc(Cl)cc1`: 641 nM; `CC(=O)Nc1sc2c(c1Cc1nnc(SCSc3nnc(Cc4c(NC(C)=O)sc5c4CCCC5)n3NC(C)=O)n1NC(C)=O)CCCC2`: 839 nM.
`O=C(CSc1nnc(Cc2c(NC(=O)c3ccccc3)sc3c2CCCC3)n1NC(=O)c1ccccc1)NNC(=O)c1ccccc1`: the IC50 amounted to 466 nM.
For `O=C(CSc1nnc(Cc2c(NC(=O)c3ccccc3)sc3c2CCCC3)n1NC(=O)c1ccc(Cl)cc1)NNC(=O)c1ccccc1`, inhibition was half-maximal at 483 nM (IC50).
Then `N#CCSc1nnc(Cc2c(NCCC(=O)O)sc3c2CCCC3)n1NC(=O)c1ccc(Cl)cc1`, with 422 nM; and `CC(=O)Nn1c(Cc2c(NC(=O)c3ccccc3)sc3c2CCCC3)nnc1SCC#N`, with 564 nM; and `CC(=O)NNC(=O)CSc1nnc(Cc2c(NCCC(=O)O)sc3c2CCCC3)n1NC(=O)c1ccc(Cl)cc1`, with 352 nM.
`CC(=O)Nn1c(Cc2c(NCCC(=O)O)sc3c2CCCC3)nnc1SCC(=O)NN` showed an IC50 of 931 nM.
